Change in vivo and IC50 data for 25 compounds are collected here from patent US4906624A, “6-(((Substituted)pyridin-3-yl)alkyl)-and alkenyl)-tetrahydro-4-hydroxypyran-2-one inhibitors of cholesterol biosynthesis” (Warner-Lambert Company, priority 1988, dated 1990).

pIC50: −log10 of the molar value. Counter-ions that a name gives are not always drawn.

One assay relates to Cholesterol Synthesis. Put plainly: AICS screen: inhibition of cholesterol synthesis in rats (plasma [14C]cholesterol after sodium [1-14C]-acetate). Format: in vivo. Particulars: Rattus norvegicus, 50 min; 1.0 mg/kg, single dose, oral gavage, male Sprague-Dawley rats fed 5% cholestyramine; acetate one hour after drug, blood after 50 minutes. On the procedure: The ability of compounds of the present invention to inhibit the biosynthesis of cholesterol was also measured by a method (designated AICS screen) which utilizes the procedure described by A. W. Alberts et al, Proc. Natl. Acad. Sci., (1980), 77, pp 3957-3961.
In this method male Sprague-Dawley rats (200 g body weight) previously fed 5% cholestyramine for three days were randomly divided into groups (N=5/group) and given a single dose of vehicle (controls) or compound by an oral gavage at the indicated doses. One hour after drug dosing, all rats were injected intraperitoneally with sodium[1-^14 C]-acetate (18.75 μCi/rat in 0.2 ml saline). After 50 minutes, blood samples were taken, plasma obtained by centrifugation, and plasma [^14 C]cholesterol measured after saponification and extraction.
Consider `CCc1nc(CC)c(C(=O)OC)c(-c2ccc(F)cc2)c1/C=C/[C@@H]1C[C@@H](O)CC(=O)O1` (relative stereo) [Example 34, [2α,4β(E)]-2,6-diethyl-4-(4-fluorophenyl)-5-[2-(tetrahydro-4-hydroxy-6-oxo-2H-pyran-2-yl)ethenyl]-3-pyridinecarboxylic acid, methyl ester], for which the change in vivo at 1 mg/kg was -57%.
As for `Cc1cc(-c2ccc(F)cc2)c(/C=C/[C@@H]2C[C@@H](O)CC(=O)O2)c(C(C)C)[n+]1[O-]` (relative stereo) [Example 42, 4α,6β(E)-6-[2-[4-(4-fluorophenyl)-6-methyl-2-(1-methylethyl)-3-pyridinyl]ethenyl]tetrahydro-4-hydroxy-2H-pyran-2-one, N-oxide], the change in vivo at 1 mg/kg is -69%.
For the compound `CCc1cc(-c2ccc(F)cc2)c(/C=C/[C@@H]2C[C@@H](O)CC(=O)O2)c(CC)n1` (relative stereo) [Example 26, [4α,6β(E)]-6-[2-[2,6-diethyl-4(4-fluorophenyl)-3-pyridinyl]ethenyl]tetrahydro-4-hydroxy-2H-pyran-2-one], the change in vivo at 1 mg/kg is -60%.

For a further assay, the system named is sterol synthesis (cholesterol biosynthesis) in rat liver homogenate. Put plainly: CSI screen: inhibition of sterol/cholesterol synthesis (14C-acetate incorporation into nonsaponifiable lipid) by rat liver homogenate. The class given is biochemical. The conditions noted are these: one-hour period, rats fed 5% cholestyramine for four days, 60 min, read-out: CSI/IC50 (concentration required for 50% inhibition of sterol synthesis). The method, then: The ability of compounds of the present invention to inhibit the biosynthesis of cholesterol was measured by a method (designated CSI screen) which utilizes the procedure described by R. E. Dugan, et al, Archiv. Biochem. Biophys., (1972), 152, 21-27. In this method, the level of HMG-CoA enzyme activity in standard laboratory rats is increased by feeding the rats a chow diet containing 5% cholestyramine for four days, after which the rats are sacrificed.
The rat livers are homogenized, and the incorporation of […] into nonsaponifiable lipid by the rat liver homogenate is measured. The micromolar concentration of compound required for 50% inhibition of sterol synthesis over a one-hour period is measured, and expressed as an IC50 value.
For `CCCNC(=O)c1c(C(C)C)nc(C(C)C)c(/C=C/[C@@H](O)C[C@@H](O)CC(=O)O)c1-c1ccc(F)cc1` (relative stereo) [Example 33, [R*,S*-(E)]-7-[4-(4-fluorophenyl)-2,6-bis(1-methylethyl)-5-[(propylamino)carbonyl]-3-pyridinyl]-3,5-dihydroxy-6-heptenoic acid, monosodium salt], the pIC50 is 7.70.
For `CCOC(=O)c1c(C)nc(C)c(/C=C/[C@@H](O)C[C@@H](O)CC(=O)O)c1-c1ccc(F)cc1` (relative stereo) [Example 12, [R*,S*-(E)]-5-(6-carboxy-3,5-dihydroxy-1-hexenyl)-4-(4-fluorophenyl)-2,6-dimethyl-, 3-ethyl ester, 3-pyridinecarboxylic acid, monosodium salt], the pIC50 is 6.85.
As to `Cc1cc(-c2ccccc2)c(/C=C/[C@@H](O)C[C@@H](O)CC(=O)O)c(C)n1` (relative stereo) [Example 3, [R*,S*(E)]-7-(2,6-dimethyl-4-phenyl-3-pyridinyl)-3,5-dihydroxy-6-heptenoicacid, sodium salt], the pIC50 was 6.64.
Consider `CCc1nc(CC)c(C(=O)OC)c(-c2ccc(F)cc2)c1/C=C/[C@@H](O)C[C@@H](O)CC(=O)O` (relative stereo) [Example 35, [R*,S*-(E)]-5-(6-carboxy-3,5-dihydroxy-1-hexenyl)-2,6-diethyl-4-(4-fluorophenyl)-, methyl ester, 3-pyridinecarboxylic acid, monosodium salt], for which the pIC50 was 7.36.
In the case of `Cc1cc(-c2ccc(F)cc2)c(/C=C/[C@@H]2C[C@@H](O)CC(=O)O2)c(C)n1` (relative stereo) [Example 7, [4α,6β(E)]-6-[2-[4-(4-Fluorophenyl)-2,6-dimethyl-3-pyridinyl]ethenyl]tetrahydro-4-hydroxy-2H-pyran-2-one], the pIC50 was 7.17.
Turning to `CC(C)c1cc(-c2ccc(F)cc2)c(/C=C/[C@@H](O)C[C@@H](O)CC(=O)O)c(C(C)C)n1` (relative stereo) [Example 16, [R*,S*(E)]-7-[4-(4-fluorophenyl)-2,6-bis(1-methylethyl)-3-pyridinyl]-3,5-dihydroxy-6-heptenoic acid, monosodium salt], the pIC50 is 7.52.
On to `COC(=O)c1c(C(C)C)nc(C(C)C)c(/C=C/[C@@H](O)C[C@@H](O)CC(=O)O)c1-c1ccc(F)cc1` (relative stereo) [Example 14, [R*,S*-(E)]-5-(6-carboxy-3,5-dihydroxy-1-hexenyl)-4-(4-fluorophenyl)-2,6-bis-1-methylethyl)-, methyl ester-3-pyridinecarboxylic acid, sodium salt], for which the pIC50 was 7.10.
Still for that read-out and setting: under `Cc1cc(-c2ccc(F)cc2)c(/C=C/[C@@H](O)C[C@@H](O)CC(=O)O)c(C(F)(F)F)n1` (relative stereo) [Example 23, [R*,S*-(E)]-7-[4-(4-fluorophenyl)-6-methyl-2-(trifluoromethyl)-3,5-dihydroxy-6-heptenoic acid, monosodium salt] stands 7.30.
In the case of `COc1c(C)nc(C(C)C)c(/C=C/[C@@H](O)C[C@@H](O)CC(=O)O)c1-c1ccc(F)cc1` (relative stereo) [Example 39, [R*,S*-(E)]-7-[4-(4-fluorophenyl)-5-methoxy-6-methyl-2-(1-methylethyl)-3-pyridinyl]-3,5-dihydroxy-6-heptenoic acid, monosodium salt], the pIC50 was 8.10.
On to `COC(=O)c1c(C(C)C)nc(C)c(/C=C/[C@@H](O)C[C@@H](O)CC(=O)O)c1-c1ccc(F)cc1` (relative stereo) [Example 10, [R*,S*-(E)]-5-(6-carboxy-3,5-dihydroxy-1-hexenyl)-4-(4-fluorophenyl)-6-methyl-2-(1-methylethyl)-, 3-methyl ester, 3-pyridinecarboxylic acid, monosodium salt], for which the pIC50 was 7.15.
As for `CC(C)c1nc(-c2ccccc2)cc(-c2ccc(F)cc2)c1/C=C/[C@@H](O)C[C@@H](O)CC(=O)O` (relative stereo) [Example 31, [R*,S*-(E)]-7-[2-[4-(4-fluorophenyl)-2-(1-methylethyl)-6-phenyl-3-pyridinyl]ethenyl]-3,5-dihydroxy-6-heptenoic acid, monosodium salt], the pIC50 was 7.24.
With `Cc1nccc(-c2ccccc2)c1/C=C/[C@@H]1C[C@@H](O)CC(=O)O1` (relative stereo) [Example 1, [4α,6β(E)]-Tetrahydro-4-hydroxy-6-[2-(2-methyl-4-phenyl-3-pyridinyl)ethenyl]-2H-pyran-2-one], the pIC50 was 6.44.
The same measure, in the same setting: under `Cc1cc(-c2ccc(F)cc2)c(/C=C/[C@@H](O)C[C@@H](O)CC(=O)O)c(C(C)C)n1` (relative stereo) [Example 20, [R*,S*-(E)]-7-[4-(4-fluorophenyl)-6-methyl-2-(1-methylethyl)-3-pyridinyl-3,5-dihydroxy-6-heptenoic acid, sodium salt] stands 7.80; under `Cc1cc(-c2ccc(F)cc2)c(/C=C/[C@@H](O)C[C@@H](O)CC(=O)O)c(C)n1` (relative stereo) [Example 8, [R*,S*(E)]-7-[4-(4-Fluorophenyl)-2,6-dimethyl-3-pyridinyl]-3,5-dihydroxy-6-heptenoic acid, sodium salt], 7.14.
Consider `O=C(O)C[C@H](O)C[C@H](O)/C=C/c1c(-c2ccc(F)cc2)cc(C(F)F)nc1C(F)(F)F` (relative stereo) [Example 25, [R*,S*-(E)]-7-[6-(difluoromethyl)-4-(4-fluorophenyl)-2-(trifluoromethyl)-3-pyridinyl]-3,5-dihydroxy-6-heptenoic acid, monosodium salt], for which the pIC50 was 7.15.
With `Cc1nccc(-c2ccccc2)c1CC[C@H]1C[C@H](O)CC(=O)O1` (relative stereo) [Example 4, trans-Tetrahydro-4-hydroxy-6-[2-(2-methyl-4-phenyl-3-pyridinyl)ethyl]-2H-pyran-2-one], the pIC50 was 6.38.
In the case of `CCc1nc(CC)c(CO)c(-c2ccc(F)cc2)c1/C=C/[C@@H](O)C[C@@H](O)CC(=O)O` (relative stereo) [Example 37, [R*,S*-(E)]-7-[2,6-diethyl-4-(4-fluorophenyl)-5-(hydroxymethyl)-3-pyridinyl]-3,5-dihydroxy-6-heptenoic acid, monosodium salt], the pIC50 is 7.62.
`Cc1nc(C)c(/C=C/[C@@H](O)C[C@@H](O)CC(=O)O)c(-c2ccc(F)cc2)c1C#N` (relative stereo) [Example 6, [R*,S*(E)]-7-[5-Cyano-4-(4-fluorophenyl)-2,6-dimethyl-3-pyridinyl]-3,5-dihydroxy-6-heptenoic acid, sodium salt]: the pIC50 was 7.21.
On to `CCc1cc(-c2ccc(F)cc2)c(/C=C/[C@@H](O)C[C@@H](O)CC(=O)O)c(CC)n1` (relative stereo) [Example 27, [R*,S*-(E)]-7-[2,6-diethyl-4-4-(fluorophenyl)-3-pyridinyl]-3,5-dihydroxy-6-heptenoic acid, monosodium salt], for which the pIC50 is 7.49.
For `Cc1cc(C)c(/C=C/[C@@H](O)C[C@@H](O)CC(=O)O)c(-c2ccc(F)cc2)n1` (relative stereo) [Example 29, [R*,S*-(E)]-7-[2-(4-fluorophenyl)-4,6-dimethyl-3-pyridinyl]-3,5-dihydroxy-6-heptenoic acid, monosodium salt], the pIC50 is 7.30.
Consider `C=Cc1c(C)nc(C(C)C)c(/C=C/[C@@H](O)C[C@@H](O)CC(=O)O)c1-c1ccc(F)cc1` (relative stereo) [Example 41, [R*,S*-(E)]-7-[5-ethenyl-4-(4-fluorophenyl)-6-methyl-2-(1-methylethyl)-3-pyridinyl]-3,5-dihydroxy-6-heptenoic acid, monosodium salt], for which the pIC50 was 7.96.
Consider `Cc1cc(-c2ccccc2)c(/C=C/[C@@H]2C[C@@H](O)CC(=O)O2)c(C)n1` (relative stereo) [Example 2, [4α,6β(E)]-6-[2-(2,6-Dimethyl-4-phenyl-3-pyridinyl)ethenyl]tetrahydro-4-hydroxy-2H-pyran-2-one], for which the pIC50 was 6.74.
